Consider 15 molecules from article PMC6366423 (Journal of Enzyme Inhibition and Medicinal Chemistry, 2019).

One experiment addresses T1, EeAChE (Electrophorus electricus, UniProt O42275).
T1 construct: EeAChE (type VI-S, purified from Electrophorus electricus); tissue type VI-S
As to the kind of experiment: biochemical. The settings on record: for inhibition at 10 µM: read-out: EeAChE enzymatic inhibition (%). The protocol:
(§1) Inhibition of EeAChE and eqBuChE of hybrids 14a–p was carried out with EeAChE (type VI-S, purified from Electrophorus electricus) and eqBuChE (purified from equine serum) using Ellman’s protocol. Briefly, the reaction was performed in a final volume of 3 ml of a phosphate-buffered solution (0.1 M) at pH = 8.0 containing 5,5’-dithiobis-2-nitrobenzoic acid (DTNB) (2.625 μL, 0.35 mM), EeAChE (29 μl, 0.035 U/mL) or eqBuChE (60 μl, 0.05 U/mL), Bovine Albumin Serum phosphate-buffered solution (40 μL 1% w/v), and tested compound (3 µL). After 10 min of incubation, the substrate, AcTCh) iodide or butyrylthiocholine (BuTCh) iodide, was added, and the reaction was incubated for an additional 15 min.

A short description of experiment [1]: Oxygen radical absorbance capacity assay (ORAC-FL). The settings on record: Trolox equivalents (TE), mean (n = 3) ± SD.
The target in another experiment is T2, hAChE (Homo sapiens, UniProt P22303).
T2 construct: purchased Sigma Aldrich; host or cells: HEK 293
T2 sequence (P22303 32-614): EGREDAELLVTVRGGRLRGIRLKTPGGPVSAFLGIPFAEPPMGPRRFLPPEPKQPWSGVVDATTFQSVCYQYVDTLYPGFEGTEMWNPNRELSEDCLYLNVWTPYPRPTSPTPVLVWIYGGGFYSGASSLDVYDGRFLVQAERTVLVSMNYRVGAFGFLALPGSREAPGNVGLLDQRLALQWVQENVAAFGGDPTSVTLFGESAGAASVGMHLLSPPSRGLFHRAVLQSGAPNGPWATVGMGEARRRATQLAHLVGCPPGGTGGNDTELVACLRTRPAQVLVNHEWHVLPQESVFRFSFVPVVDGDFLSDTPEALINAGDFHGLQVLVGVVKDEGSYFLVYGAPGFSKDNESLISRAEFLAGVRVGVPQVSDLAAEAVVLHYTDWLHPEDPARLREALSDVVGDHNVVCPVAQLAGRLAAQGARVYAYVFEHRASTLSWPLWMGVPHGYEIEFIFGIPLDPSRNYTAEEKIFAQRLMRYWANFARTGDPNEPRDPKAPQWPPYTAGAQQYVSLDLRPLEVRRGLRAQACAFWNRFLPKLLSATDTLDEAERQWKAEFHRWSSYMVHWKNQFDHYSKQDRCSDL
As to the kind of experiment: biochemical. It counts as biochemical. The settings on record: for inhibition at 10 µM: read-out: hAChE enzymatic inhibition (%); for IC50: mean ± SEM.

The target in a further experiment is T3, hBuChE (Homo sapiens, UniProt P06276).
T3 construct: hBuChE from human serum (Sigma Aldrich, Madrid, Spain); purchased Sigma Aldrich; host or cells: human serum
T3 sequence (P06276 29-602): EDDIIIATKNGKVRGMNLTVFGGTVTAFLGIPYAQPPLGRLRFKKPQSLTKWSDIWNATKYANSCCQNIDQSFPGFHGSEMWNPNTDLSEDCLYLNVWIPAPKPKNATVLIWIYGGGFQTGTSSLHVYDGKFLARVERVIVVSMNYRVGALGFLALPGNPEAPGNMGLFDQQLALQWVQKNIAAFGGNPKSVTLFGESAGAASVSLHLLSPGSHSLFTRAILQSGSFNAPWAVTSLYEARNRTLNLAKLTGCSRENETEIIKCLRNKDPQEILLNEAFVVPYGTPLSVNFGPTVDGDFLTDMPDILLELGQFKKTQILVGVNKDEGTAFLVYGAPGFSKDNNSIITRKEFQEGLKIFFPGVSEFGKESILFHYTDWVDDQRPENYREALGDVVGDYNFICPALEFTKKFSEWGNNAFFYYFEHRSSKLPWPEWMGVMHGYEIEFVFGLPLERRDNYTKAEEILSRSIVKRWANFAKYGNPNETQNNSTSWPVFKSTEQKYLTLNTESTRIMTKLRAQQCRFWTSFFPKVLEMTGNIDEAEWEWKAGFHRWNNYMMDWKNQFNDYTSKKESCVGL
As to the kind of experiment: biochemical. It counts as biochemical. Particulars: for inhibition at 10 µM: read-out: hBuChE enzymatic inhibition (%); for IC50: mean ± SEM.

Another experiment concerns the target T4, eqBuChE (Equus caballus, UniProt P81908).
T4 construct: eqBuChE (purified from equine serum); from tissue; host or cells: equine serum
As to the kind of experiment: biochemical. It counts as biochemical, equine. The settings on record: for IC50: mean ± SEM. The protocol:
as §1

A further experiment deals with T5, hMAOB (Homo sapiens, UniProt P27338).
T5 sequence (P27338 1-520): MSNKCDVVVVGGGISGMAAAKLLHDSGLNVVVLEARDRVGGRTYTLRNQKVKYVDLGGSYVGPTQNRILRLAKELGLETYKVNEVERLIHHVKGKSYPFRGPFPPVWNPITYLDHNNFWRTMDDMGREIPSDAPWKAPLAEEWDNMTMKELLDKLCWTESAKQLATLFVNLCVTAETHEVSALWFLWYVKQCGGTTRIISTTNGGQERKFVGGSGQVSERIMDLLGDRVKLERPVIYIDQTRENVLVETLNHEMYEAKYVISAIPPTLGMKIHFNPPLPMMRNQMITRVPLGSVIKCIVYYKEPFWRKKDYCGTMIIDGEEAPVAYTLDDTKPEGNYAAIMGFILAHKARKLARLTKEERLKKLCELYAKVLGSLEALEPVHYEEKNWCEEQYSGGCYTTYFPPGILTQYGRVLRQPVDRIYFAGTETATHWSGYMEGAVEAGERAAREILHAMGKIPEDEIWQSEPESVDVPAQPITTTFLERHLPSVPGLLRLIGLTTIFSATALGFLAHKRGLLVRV
As to the kind of experiment: MAO activity assay (kynuramine, HPLC-MS). The class given is biochemical. Particulars: for inhibition at 10 µM: read-out: hMAOB enzymatic inhibition (%); for IC50: IC50 hMAOB, mean ± SEM.

Another experiment addresses T6, hMAOA (Homo sapiens, UniProt P21397).
T6 sequence (P21397 1-527): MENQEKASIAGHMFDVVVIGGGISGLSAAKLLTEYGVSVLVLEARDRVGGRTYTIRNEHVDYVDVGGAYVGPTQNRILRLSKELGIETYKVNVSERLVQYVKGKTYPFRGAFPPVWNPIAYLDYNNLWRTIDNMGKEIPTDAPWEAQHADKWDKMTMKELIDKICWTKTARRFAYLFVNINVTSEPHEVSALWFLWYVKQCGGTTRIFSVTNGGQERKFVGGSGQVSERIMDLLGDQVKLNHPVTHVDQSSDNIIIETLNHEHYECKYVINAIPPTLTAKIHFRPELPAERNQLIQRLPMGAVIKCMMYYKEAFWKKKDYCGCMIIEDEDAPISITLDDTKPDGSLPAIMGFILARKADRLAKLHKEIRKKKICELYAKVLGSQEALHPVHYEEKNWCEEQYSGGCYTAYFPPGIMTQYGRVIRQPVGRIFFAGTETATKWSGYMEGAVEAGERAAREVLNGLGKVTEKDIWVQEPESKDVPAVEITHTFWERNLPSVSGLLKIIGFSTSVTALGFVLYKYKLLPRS
As to the kind of experiment: MAO activity assay (kynuramine, HPLC-MS). The class given is biochemical. Particulars: for inhibition at 10 µM: read-out: hMAOA enzymatic inhibition (%).

T4 sequence (P81908 whole entry): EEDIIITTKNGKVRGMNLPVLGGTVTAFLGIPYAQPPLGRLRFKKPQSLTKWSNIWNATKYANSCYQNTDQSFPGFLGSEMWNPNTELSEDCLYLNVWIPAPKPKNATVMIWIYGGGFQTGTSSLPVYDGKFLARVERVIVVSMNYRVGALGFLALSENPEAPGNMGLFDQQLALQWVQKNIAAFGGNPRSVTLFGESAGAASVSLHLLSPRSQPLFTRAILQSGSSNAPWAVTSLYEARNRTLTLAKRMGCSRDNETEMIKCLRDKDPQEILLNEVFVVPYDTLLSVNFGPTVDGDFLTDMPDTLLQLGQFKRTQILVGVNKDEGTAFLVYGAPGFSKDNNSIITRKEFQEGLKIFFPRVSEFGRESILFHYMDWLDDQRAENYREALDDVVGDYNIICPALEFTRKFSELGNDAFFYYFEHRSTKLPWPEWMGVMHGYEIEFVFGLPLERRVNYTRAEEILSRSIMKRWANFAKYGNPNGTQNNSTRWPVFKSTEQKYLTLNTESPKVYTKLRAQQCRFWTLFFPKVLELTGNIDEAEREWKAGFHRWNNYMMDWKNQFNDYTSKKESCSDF
T1 sequence (O42275 24-633): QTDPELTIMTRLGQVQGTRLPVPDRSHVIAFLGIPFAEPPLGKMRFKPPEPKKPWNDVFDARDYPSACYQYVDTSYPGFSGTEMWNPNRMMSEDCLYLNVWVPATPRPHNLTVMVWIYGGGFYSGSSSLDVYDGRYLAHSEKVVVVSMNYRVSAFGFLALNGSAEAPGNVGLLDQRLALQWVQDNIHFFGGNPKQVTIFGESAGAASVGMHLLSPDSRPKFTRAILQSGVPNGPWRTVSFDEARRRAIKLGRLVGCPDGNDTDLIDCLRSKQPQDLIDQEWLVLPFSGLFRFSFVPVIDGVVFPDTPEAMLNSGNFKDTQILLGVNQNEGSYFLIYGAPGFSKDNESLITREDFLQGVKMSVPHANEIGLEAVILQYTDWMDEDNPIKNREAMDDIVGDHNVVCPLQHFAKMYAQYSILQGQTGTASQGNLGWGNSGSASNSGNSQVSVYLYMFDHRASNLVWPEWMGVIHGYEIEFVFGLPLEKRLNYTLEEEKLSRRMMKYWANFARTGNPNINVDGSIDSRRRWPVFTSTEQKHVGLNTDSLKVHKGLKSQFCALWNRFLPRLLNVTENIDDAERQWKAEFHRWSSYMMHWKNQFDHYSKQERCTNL

As for `COc1ccc2[nH]cc(CCNC(=O)CN(CC3CCN(Cc4ccccc4)CC3)C(=O)c3cc(=O)c4ccccc4o3)c2c1` [14b], the inhibition (as a rule, the percentage by which the read-out fell short of the control) at 10 µM at EeAChE was under 50%; on hAChE (at 10 μM), under 50%; on hBuChE, under 50%; on hMAOB it was under 40%; on hMAOA, under 40%. Moreover, in experiment [1], the “ORAC (Eq Trolox)” value was 6.24 ± 0.05 Eq Trolox. Further, half-maximal inhibition against eqBuChE (IC50) required 0.636 ± 0.0116 µM.
Turning to `CC(C)Oc1ccc2[nH]cc(CCNC(=O)CN(CCCCC3CCN(Cc4ccccc4)CC3)C(=O)c3cc(=O)c4ccccc4o3)c2c1` [14o], the IC50 (commonly the concentration that inhibits the measured activity by half) against EeAChE (mean ± SEM) worked out at 90 nM; against EeAChE (values given in nM) it was 88.5 nM; against eqBuChE, 0.0466 ± 0.00276 µM. In experiment [1], the “ORAC (Eq Trolox)” value is 2.63 ± 0.12 Eq Trolox. For the same molecule, the inhibition at 10 µM at hAChE (at 10 μM) was under 50%; on hBuChE, under 50%; at hMAOB, under 40%; on hMAOA, under 40%.
On to `CCCOc1ccc2[nH]cc(CCNC(=O)CN(CCC3CCN(Cc4ccccc4)CC3)C(=O)c3cc(=O)c4ccccc4o3)c2c1` [14h], for which the IC50 was 850 ± 20 nM at EeAChE (mean ± SEM), 2.04 ± 0.66 µM at hAChE, 0.0639 ± 0.00255 µM against hBuChE and 0.00676 ± 0.00049 µM on eqBuChE. For the same molecule, in experiment [1], the “ORAC (Eq Trolox)” value is 6.07 ± 0.02 Eq Trolox. Further, the “eqBuChE potency, fold more potent than Donepezil” value at eqBuChE was 133 fold. The inhibition at 10 µM at hMAOB and at hMAOA was under 40% in each case.
For the molecule `CCCOc1ccc2[nH]cc(CCNC(=O)CN(CC3CCN(Cc4ccccc4)CC3)C(=O)c3cc(=O)c4ccccc4o3)c2c1` [14d], the inhibition at 10 µM at EeAChE was under 50%; on hAChE (at 10 μM), under 50%; on hBuChE, under 50%; on hMAOA it was under 40%. Also, the “ORAC (Eq Trolox)” value in experiment [1] came to 6.76 ± 0.09 Eq Trolox. For the same molecule, on eqBuChE, inhibition was half-maximal at 0.0469 ± 0.00341 µM (IC50).
For the molecule `COc1ccc2[nH]cc(CCNC(=O)CN(CCC3CCN(Cc4ccccc4)CC3)C(=O)c3cc(=O)c4ccccc4o3)c2c1` [14f], the “ORAC (Eq Trolox)” value in experiment [1] is listed as 6.13 ± 0.09 Eq Trolox. Also, the “hAChE, fold less active than Donepezil” value at hAChE stood at 15 fold. Also, the IC50 against hAChE turned out to be 0.36 ± 0.16 µM; against hBuChE, 0.2718 ± 0.00175 µM; on eqBuChE it was 0.026 ± 0.00237 µM; against hMAOB, 80.6 ± 13.9 µM. The inhibition at 10 µM on hMAOA is under 40%.
As to `CCCOc1ccc2[nH]cc(CCNC(=O)CN(CCCC3CCN(Cc4ccccc4)CC3)C(=O)c3cc(=O)c4ccccc4o3)c2c1` [14l], the IC50 against EeAChE (mean ± SEM) is 380 ± 10 nM; at eqBuChE, 0.00903 ± 0.00018 µM. The “ORAC (Eq Trolox)” value in experiment [1] is reported as 2.44 ± 0.16 Eq Trolox. The inhibition at 10 µM is under 50% on hAChE (at 10 μM), under 50% at hBuChE, under 40% on hMAOB and under 40% on hMAOA.
Regarding `Nc1c2c(nc3ccccc13)CCCC2` [Tacrine, reference compound], in experiment [1], the “ORAC (Eq Trolox)” value is reported as 0.2 ± 0.1 Eq Trolox.
Take `CC(C)Oc1ccc2[nH]cc(CCNC(=O)CN(CC3CCN(Cc4ccccc4)CC3)C(=O)c3cc(=O)c4ccccc4o3)c2c1` [14c]: the inhibition at 10 µM was under 50% at EeAChE; under 50% at hAChE (at 10 μM); under 50% on hBuChE; under 40% at hMAOB; under 40% at hMAOA. In addition, the “ORAC (Eq Trolox)” value in experiment [1] is on record as 6.11 ± 0.07 Eq Trolox. The same molecule registered an IC50 on eqBuChE of 0.246 ± 0.00991 µM.
In the case of `CC(C)Oc1ccc2[nH]cc(CCNC(=O)CN(CCCC3CCN(Cc4ccccc4)CC3)C(=O)c3cc(=O)c4ccccc4o3)c2c1` [14k], the IC50 against EeAChE (mean ± SEM) amounted to 360 ± 10 nM; against hBuChE, 0.0349 ± 0.00085 µM; against eqBuChE it was 0.01821 ± 0.00018 µM; at hMAOB, 15.2 µM; against hMAOA it was 2.99 ± 0.16 µM. Besides, the results for the “ORAC (Eq Trolox)” value in experiment [1] and in experiment [1] (listed as [14]k) were 2.27 Eq Trolox and 2.27 ± 0.37 Eq Trolox, respectively. For the same molecule, the “hAChE enzymatic inhibition (%)” value on hAChE (at 10 μM) is “– ^b”.
As to `CCCOc1ccc2[nH]cc(CCNC(=O)CN(CCCCC3CCN(Cc4ccccc4)CC3)C(=O)c3cc(=O)c4ccccc4o3)c2c1` [14p], the IC50 stood at 80 nM against EeAChE (mean ± SEM); 2.1 ± 0.51 µM against hAChE; 0.0804 ± 0.0124 µM at hBuChE; 0.0613 ± 0.00548 µM against eqBuChE; 1.39 ± 0.11 µM against hMAOA. Further, in experiment [1], the “ORAC (Eq Trolox)” value is reported as 2.67 ± 0.15 Eq Trolox. Besides, the inhibition at 10 µM on hMAOB was under 40%.
As for `O=C(CN(CC1CCN(Cc2ccccc2)CC1)C(=O)c1cc(=O)c2ccccc2o1)NCCc1c[nH]c2ccccc12` [14a], the inhibition at 10 µM on EeAChE is under 50%; on hAChE (at 10 μM), under 50%; on hMAOB it was under 40%. Moreover, in experiment [1], the “ORAC (Eq Trolox)” value is listed as 6.28 ± 0.12 Eq Trolox. Moreover, the IC50 stood at 1.17 µM against hBuChE, 0.496 ± 0.00707 µM against eqBuChE and 2 µM at hMAOA.
Regarding `COc1ccc2[nH]cc(CCNC(=O)CN(CCCCC3CCN(Cc4ccccc4)CC3)C(=O)c3cc(=O)c4ccccc4o3)c2c1` [14n, N-(4–(1-benzylpiperidin-4-yl)butyl)-N-(2-((2–(5-methoxy-1H-indol-3-yl)ethyl)amino)-2-oxoethyl)-4-oxo-4H-chromene-2-carboxamide], the 50% inhibitory concentration (IC50) against EeAChE (mean ± SEM) was determined as 480 ± 10 nM; against hAChE it was 1.73 ± 0.34 µM; against hBuChE it was 0.0119 ± 5e-05 µM; against eqBuChE it was 0.0434 ± 0.00137 µM; against hMAOB, 21.3 µM; on hMAOA, 2.78 ± 0.12 µM. For the same molecule, the results for the “ORAC (Eq Trolox)” value in experiment [1] and in experiment [1] (listed as [14]n) were 3.04 Eq Trolox and 3.04 ± 0.36 Eq Trolox, respectively. The “hBuChE, fold less active than Tacrine” value on hBuChE was found to be 2 fold.
`O=C(CN(CCC1CCN(Cc2ccccc2)CC1)C(=O)c1cc(=O)c2ccccc2o1)NCCc1c[nH]c2ccccc12` [14e]: the IC50 on EeAChE (mean ± SEM) stood at 1430 ± 50 nM; on hAChE it was 2.62 ± 0.53 µM; at hBuChE, 0.0333 ± 0.00055 µM; at eqBuChE, 0.0296 ± 0.00238 µM. Further, the “ORAC (Eq Trolox)” value in experiment [1] stood at 6.52 ± 0.37 Eq Trolox. Moreover, the inhibition at 10 µM at hMAOB and at hMAOA was under 40% throughout.
For `COc1ccc2[nH]cc(CCNC(=O)CN(CCCC3CCN(Cc4ccccc4)CC3)C(=O)c3cc(=O)c4ccccc4o3)c2c1` [14j], the IC50 at EeAChE (mean ± SEM) came to 270 nM; against eqBuChE it was 0.0371 ± 0.00046 µM. Besides, the “ORAC (Eq Trolox)” value in experiment [1] is given as 3.31 ± 0.10 Eq Trolox. In addition, the inhibition at 10 µM at hAChE (at 10 μM) is under 50%; on hBuChE it was under 50%; on hMAOB, under 40%; at hMAOA, under 40%.
As to `O=C(CN(CCCCC1CCN(Cc2ccccc2)CC1)C(=O)c1cc(=O)c2ccccc2o1)NCCc1c[nH]c2ccccc12` [14m], the values for the IC50 on EeAChE (mean ± SEM), against EeAChE (values given in nM) and against eqBuChE were 60 nM, 58.2 nM and 0.355 ± 0.00841 µM, respectively. Besides, the “ORAC (Eq Trolox)” value in experiment [1] is on record as 2.97 ± 0.16 Eq Trolox. Also, the inhibition at 10 µM on hAChE (at 10 μM) is under 50%; at hBuChE, under 50%; on hMAOB, under 40%; at hMAOA it was under 40%.
